From the supplement of paper PMC11451515

Tested on: P12-Ichikawa
Experiment: cell viability relative to DMSO control; higher = less cytotoxic
Settings: 48 h
Outline: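 Before seeding, each leukemia line was adapted for at least four passages in each medium. NOMO1 or SEM cells (500 cells/well) and P12-Ichikawa cells (1000 cells/well) went into 1536-well plates at 5 μl, then received library compounds in DMSO by pin dosing across 11 threefold concentrations, 47 μM to 0.79 nM. Readout was CellTiter-Glo One luminescence after 48 h at 37°C, and viability is given as a per-plate percentage of DMSO wells, with cell-free wells as background.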

[1] = HPLM + 10% dialyzed FBS, 0.000781 µM
[2] = HPLM + 10% dialyzed FBS, 0.00234 µM
[3] = HPLM + 10% dialyzed FBS, 0.00702 µM
[4] = HPLM + 10% dialyzed FBS, 0.0211 µM
[5] = HPLM + 10% dialyzed FBS, 0.0632 µM
[6] = HPLM + 10% dialyzed FBS, 0.19 µM
[7] = HPLM + 10% dialyzed FBS, 0.569 µM
[8] = HPLM + 10% dialyzed FBS, 1.71 µM
[9] = HPLM + 10% dialyzed FBS, 5.12 µM
[10] = HPLM + 10% dialyzed FBS, 15.4 µM
[11] = HPLM + 10% dialyzed FBS, 46.1 µM
[12] = RPMI 5 mM glucose + 10% dialyzed FBS, 0.000781 µM
[13] = RPMI 5 mM glucose + 10% dialyzed FBS, 0.00234 µM
[14] = RPMI 5 mM glucose + 10% dialyzed FBS, 0.00702 µM
[15] = RPMI 5 mM glucose + 10% dialyzed FBS, 0.0211 µM
[16] = RPMI 5 mM glucose + 10% dialyzed FBS, 0.0632 µM
[17] = RPMI 5 mM glucose + 10% dialyzed FBS, 0.19 µM
[18] = RPMI 5 mM glucose + 10% dialyzed FBS, 0.569 µM
[19] = RPMI 5 mM glucose + 10% dialyzed FBS, 1.71 µM
[20] = RPMI 5 mM glucose + 10% dialyzed FBS, 5.12 µM
[21] = RPMI 5 mM glucose + 10% dialyzed FBS, 15.4 µM
[22] = RPMI 5 mM glucose + 10% dialyzed FBS, 46.1 µM
[23] = RPMI 5 mM glucose + 10% FBS, 0.000781 µM
[24] = RPMI 5 mM glucose + 10% FBS, 0.00234 µM
[25] = RPMI 5 mM glucose + 10% FBS, 0.00702 µM
[26] = RPMI 5 mM glucose + 10% FBS, 0.0211 µM
[27] = RPMI 5 mM glucose + 10% FBS, 0.0632 µM
[28] = RPMI 5 mM glucose + 10% FBS, 0.19 µM
[29] = RPMI 5 mM glucose + 10% FBS, 0.569 µM
[30] = RPMI 5 mM glucose + 10% FBS, 1.71 µM
[31] = RPMI 5 mM glucose + 10% FBS, 5.12 µM
[32] = RPMI 5 mM glucose + 10% FBS, 15.4 µM
[33] = RPMI 5 mM glucose + 10% FBS, 46.1 µM

SMILES	cell viability [1] [%]	cell viability [2] [%]	cell viability [3] [%]	cell viability [4] [%]	cell viability [5] [%]	cell viability [6] [%]	cell viability [7] [%]	cell viability [8] [%]	cell viability [9] [%]	cell viability [10] [%]	cell viability [11] [%]	cell viability [12] [%]	cell viability [13] [%]	cell viability [14] [%]	cell viability [15] [%]	cell viability [16] [%]	cell viability [17] [%]	cell viability [18] [%]	cell viability [19] [%]	cell viability [20] [%]	cell viability [21] [%]	cell viability [22] [%]	cell viability [23] [%]	cell viability [24] [%]	cell viability [25] [%]	cell viability [26] [%]	cell viability [27] [%]	cell viability [28] [%]	cell viability [29] [%]	cell viability [30] [%]	cell viability [31] [%]	cell viability [32] [%]	cell viability [33] [%]
CN1[C@@H]2CC[C@H]1CC(OC(=O)c1c[nH]c3ccccc13)C2 (stereo partly specified)	125	127	119	96.1	110	117	116	126	111	114	111	120	115	121	107	116	116	120	117	118	113	107	–	–	–	–	–	–	–	–	–	–	–
CN\1C(=O)/C(=C(\N=C1N2CCCC[S+]2([O-])=O)C(=O)NCC3=CC=C(F)C=C3)O	124	123	115	113	118	122	119	111	107	109	103	124	116	119	126	127	117	123	120	99.7	109	102	–	–	–	–	–	–	–	–	–	–	–
COc1ccc(Cc2ccc(NC(N)=O)cc2)cc1-c1cccc(Cl)c1	112	115	127	121	118	118	123	124	126	122	116	110	120	113	111	117	119	115	131	121	124	113	114	134	122	131	130	127	117	130	149	132	124
C[C@]12C[C@H](O)[C@H]3[C@@H](CC\C4=C\C(=O)\C=C/[C@]34C)[C@@H]1CC[C@]2(O)C(=O)CO	–	–	–	–	–	–	–	–	–	–	–	128	118	119	121	117	107	88.2	69.7	57.9	52	14	–	–	–	–	–	–	–	–	–	–	–
NC[C@H]1CC[C@H](C(=O)O)CC1	–	–	–	–	–	–	–	–	–	–	–	–	–	–	–	–	–	–	–	–	–	–	15	141	125	134	139	123	136	129	132	128	121
CN(c1ncccc1CNc1nc(Nc2ccc3c(c2)CC(=O)N3)ncc1C(F)(F)F)[S+](C)(=O)[O-]	111	117	109	109	112	112	103	109	112	101	57.8	115	118	117	114	117	108	114	114	110	105	48.2	111	113	116	110	121	113	114	114	100	88.9	50.1
COc1cc2c(cc1OC)C1CC(=O)C(CC(C)C)CN1CC2 (stereo unspecified)	122	122	116	118	113	127	117	122	116	114	106	117	119	121	124	122	125	118	125	109	115	102	–	–	–	–	–	–	–	–	–	–	–
C[C@H](O)[C@H]1[C@@H]2[C@H](C)C(=C(\N2C1=O)C(O)=O)/S[C@@H]3CN[C@H](CN[S+](N)([O-])=O)C3	118	125	132	129	124	125	124	121	121	113	104	–	–	–	–	–	–	–	–	–	–	–	123	126	123	128	124	122	123	111	117	103	105
C[C@]12CC[C@@H]3c4ccc(OC(=O)N(CCCl)CCCl)cc4CC[C@H]3[C@@H]1CC[C@@H]2OP(=O)([O-])[O-].[Na+].[Na+]	118	115	113	94.4	121	117	105	111	113	110	26.6	107	116	117	82.8	117	105	106	111	96	104	88.1	115	118	117	89	5.78	123	118	117	106	98.7	119
ClC1=C(N\C2=N\CCN2)C3=NSN=C3C=C1	106	117	122	130	119	117	119	115	120	127	124	107	115	114	127	124	116	129	115	124	120	127	–	–	–	–	–	–	–	–	–	–	–
